Data set [1] in a line: Selectivity of Tpl2 to CAMK2.
A short description of data set [2]: Selectivity of Tpl2 to EGFR.
Data set [3] is described as follows: AUC in rat at 100 mg/kg, po. Details: dose 100 mg/kg, route oral. The conditions noted are these: plasma. Format: ADME, organism-based.
Data set [4] in a line: Selectivity of Tpl2 to PKA.
Data set [5] in a line: Membrane permeability by PAMPA assay. Format: ADME. The conditions noted are these: read-out: permeability. (In general: The PAMPA barrier holds no transporters, so it reflects passive diffusion.)
Data set [6] is described as follows: Selectivity of Tpl2 to p38.
The nature of data set [7]: Cmax in rat at 100 mg/kg, po. Conditions: in vivo. Format: ADME, organism-based. Set-up: dose 100 mg/kg, route oral.
A short description of data set [8]: Selectivity of Tpl2 to Src.
The nature of data set [9]: Selectivity of Tpl2 to PKC.
Data set [10] in a line: Selectivity of Tpl2 to MK2.
The nature of data set [11]: Clearance in rat. The format is ADME, organism-based. Conditions: in vivo.

In the case of `CCN1CCC(n2cc(CNc3cc(Cl)c4ncc(C#N)c(Nc5ccc(F)c(Cl)c5)c4c3)nn2)CC1`, the fold change (FC) in data set [1] is 10; in [2], 6880; in data set [4] it was 10; in data set [6], 10; in [8] it was 10; in [9], 10. The molecule also yielded a fold change (FC) in data set [10] of 10. This molecule also yielded an AUC in data set [3] of 4840 ng·h/mL. Also, the Papp in data set [5] stood at 0.36 ×10⁻⁶ cm/s. For the same molecule, the Cmax in [7] stood at 517 ng/mL.
On to `N#Cc1cnc2c(Cl)cc(NCc3cn(Cc4ccncc4)nn3)cc2c1Nc1ccc(F)c(Cl)c1`, for which the fold change (FC) in data set [1], in [4], in [6], in data set [8], in data set [9] and in [10] was 10 throughout. This molecule also had a clearance in data set [11] of 88 mL/min/kg.
Turning to `N#Cc1cnc2c(Cl)cc(NCc3cn(-c4ccncc4)nn3)cc2c1Nc1ccc(F)c(Cl)c1`, the fold change (FC) in [1], in data set [4], in [6], in data set [8], in [9] and in data set [10] was 10 throughout. This molecule also showed a clearance in [11] of 28 mL/min/kg.

What is called AUC is the area under the concentration-time curve, a measure of exposure. For orientation: Cmax means the peak of the concentration-time curve. For orientation: clearance means the rate of elimination divided by the concentration. Lower therefore signals inefficient removal.

For the origin of these results see ChEMBL document CHEMBL1136974, “Selective inhibitors of tumor progression loci-2 (Tpl2) kinase with potent inhibition of TNF-alpha production in human whole blood” (Bioorg Med Chem Lett, 2009).
